Experimental data from PubChem BioAssay (NCI).
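Grown in 96-well plates, cells were treated for 48 hours with each compound at five concentrations. Insufficient inhibition: endpoint recorded as highest concentration tested. TGI: concentration producing complete growth inhibition.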

Legend:
Assay in all cases: NCI tumour cell line growth inhibition, 48 h
A498 renal = tested on: A498 renal
A549 NSCLC = tested on: A549 NSCLC
ACHN renal = tested on: ACHN renal
CAKI-1 renal = tested on: CAKI-1 renal
COLO 205 colon = tested on: COLO 205 colon
DU-145 prostate = tested on: DU-145 prostate
EKVX NSCLC = tested on: EKVX NSCLC
HCT-116 colon = tested on: HCT-116 colon
HCT-15 colon = tested on: HCT-15 colon
HOP-92 NSCLC = tested on: HOP-92 NSCLC
HT29 colon = tested on: HT29 colon
IGROV1 ovarian = tested on: IGROV1 ovarian
KM12 colon = tested on: KM12 colon
M14 melanoma = tested on: M14 melanoma
MDA-MB-231 breast = tested on: MDA-MB-231 breast
MDA-MB-435 = tested on: MDA-MB-435
MDA-N = tested on: MDA-N
NCI-H226 lung = tested on: NCI-H226 lung
NCI-H23 lung = tested on: NCI-H23 lung
NCI/ADR-RES ovarian = tested on: NCI/ADR-RES ovarian
OVCAR-3 ovarian = tested on: OVCAR-3 ovarian
OVCAR-4 ovarian = tested on: OVCAR-4 ovarian
OVCAR-5 ovarian = tested on: OVCAR-5 ovarian
OVCAR-8 ovarian = tested on: OVCAR-8 ovarian
PC-3 prostate = tested on: PC-3 prostate
RXF 393 renal = tested on: RXF 393 renal
SF-268 CNS = tested on: SF-268 CNS
SF-295 CNS = tested on: SF-295 CNS
SF-539 CNS = tested on: SF-539 CNS
SK-MEL-28 melanoma = tested on: SK-MEL-28 melanoma
SK-MEL-5 melanoma = tested on: SK-MEL-5 melanoma
SN12C renal = tested on: SN12C renal
SNB-19 CNS = tested on: SNB-19 CNS
SNB-75 CNS = tested on: SNB-75 CNS
SW-620 colon = tested on: SW-620 colon
TK-10 renal = tested on: TK-10 renal
U251 CNS = tested on: U251 CNS
UO-31 renal = tested on: UO-31 renal
BT-549 breast = tested on: BT-549 breast
CCRF-CEM leukemia = tested on: CCRF-CEM leukemia
HOP-62 NSCLC = tested on: HOP-62 NSCLC
HS 578T breast = tested on: HS 578T breast
MCF7 breast = tested on: MCF7 breast
MOLT-4 leukemia = tested on: MOLT-4 leukemia
NCI-H460 lung = tested on: NCI-H460 lung
RPMI-8226 leukemia = tested on: RPMI-8226 leukemia
SK-MEL-2 melanoma = tested on: SK-MEL-2 melanoma
SK-OV-3 ovarian = tested on: SK-OV-3 ovarian
UACC-257 melanoma = tested on: UACC-257 melanoma
UACC-62 melanoma = tested on: UACC-62 melanoma
786-0 renal = tested on: 786-0 renal
HCC-2998 colon = tested on: HCC-2998 colon
HL-60(TB) leukemia = tested on: HL-60(TB) leukemia
K-562 leukemia = tested on: K-562 leukemia
LOX IMVI melanoma = tested on: LOX IMVI melanoma
MALME-3M melanoma = tested on: MALME-3M melanoma
NCI-H522 lung = tested on: NCI-H522 lung
SR leukemia = tested on: SR leukemia
T-47D breast = tested on: T-47D breast

Structure (SMILES): CC(=O)N1C(=O)CC2(N=C(C)CC2=O)c2ccccc21 (centres undefined)
- TGI (A498 renal): > 10 µM
- TGI (A549 NSCLC): > 10 µM
- TGI (ACHN renal): > 10 µM
- TGI (CAKI-1 renal): > 10 µM
- TGI (COLO 205 colon): > 10 µM
- TGI (DU-145 prostate): > 10 µM
- TGI (EKVX NSCLC): > 10 µM
- TGI (HCT-116 colon): > 10 µM
- TGI (HCT-15 colon): > 10 µM
- TGI (HOP-92 NSCLC): > 10 µM
- TGI (HT29 colon): > 10 µM
- TGI (IGROV1 ovarian): > 10 µM
- TGI (KM12 colon): > 10 µM
- TGI (M14 melanoma): > 10 µM
- TGI (MDA-MB-231 breast): > 10 µM
- TGI (MDA-MB-435): > 10 µM
- TGI (MDA-N): > 10 µM
- TGI (NCI-H226 lung): > 10 µM
- TGI (NCI-H23 lung): > 10 µM
- TGI (NCI/ADR-RES ovarian): > 10 µM
- TGI (OVCAR-3 ovarian): > 10 µM
- TGI (OVCAR-4 ovarian): > 10 µM
- TGI (OVCAR-5 ovarian): > 10 µM
- TGI (OVCAR-8 ovarian): > 10 µM
- TGI (PC-3 prostate): > 10 µM
- TGI (RXF 393 renal): > 10 µM
- TGI (SF-268 CNS): > 10 µM
- TGI (SF-295 CNS): > 10 µM
- TGI (SF-539 CNS): > 10 µM
- TGI (SK-MEL-28 melanoma): > 10 µM
- TGI (SK-MEL-5 melanoma): > 10 µM
- TGI (SN12C renal): > 10 µM
- TGI (SNB-19 CNS): > 10 µM
- TGI (SNB-75 CNS): > 10 µM
- TGI (SW-620 colon): > 10 µM
- TGI (TK-10 renal): > 10 µM
- TGI (U251 CNS): > 10 µM
- TGI (UO-31 renal): > 10 µM

Structure (SMILES): O=C1c2cccc3cc([N+](=O)[O-])cc(c23)C(=O)N1CCCN1CCN(CCCNc2ccc3ncn4c5ccccc5c(=O)c2c34)CC1
- TGI (A498 renal): 5.67 µM
- TGI (A549 NSCLC): > 50 µM
- TGI (BT-549 breast): 0.0361 µM
- TGI (CAKI-1 renal): 0.00674 µM
- TGI (CCRF-CEM leukemia): 5 µM
- TGI (DU-145 prostate): > 19.9 µM
- TGI (EKVX NSCLC): > 50 µM
- TGI (HCT-15 colon): > 50 µM
- TGI (HOP-62 NSCLC): 1.74 µM
- TGI (HOP-92 NSCLC): > 50 µM
- TGI (HS 578T breast): 8.75 µM
- TGI (HT29 colon): < 0.005 µM
- TGI (M14 melanoma): 0.0785 µM
- TGI (MCF7 breast): < 0.005 µM
- TGI (MDA-MB-231 breast): 0.62 µM
- TGI (MDA-MB-435): > 50 µM
- TGI (MDA-N): 0.579 µM
- TGI (MOLT-4 leukemia): > 50 µM
- TGI (NCI-H226 lung): < 0.005 µM
- TGI (NCI-H460 lung): > 50 µM
- TGI (NCI/ADR-RES ovarian): 0.0864 µM
- TGI (OVCAR-3 ovarian): > 17.2 µM
- TGI (OVCAR-4 ovarian): > 50 µM
- TGI (OVCAR-5 ovarian): > 16.9 µM
- TGI (OVCAR-8 ovarian): 0.173 µM
- TGI (PC-3 prostate): > 17.1 µM
- TGI (RPMI-8226 leukemia): > 50 µM
- TGI (SF-268 CNS): 16.1 µM
- TGI (SF-539 CNS): 0.0871 µM
- TGI (SK-MEL-2 melanoma): > 29 µM
- TGI (SK-MEL-28 melanoma): > 25.5 µM
- TGI (SK-OV-3 ovarian): > 20 µM
- TGI (SNB-19 CNS): > 50 µM
- TGI (SNB-75 CNS): 0.187 µM
- TGI (SW-620 colon): > 50 µM
- TGI (U251 CNS): 0.00861 µM
- TGI (UACC-257 melanoma): > 50 µM
- TGI (UACC-62 melanoma): > 50 µM

Structure (SMILES): COc1cc(S(=O)(=O)Nc2nc(-c3ccc(N4C(=O)C(CC(=O)O)SC4c4ccccc4O)cc3)cs2)ccc1Cl (centres undefined)
- TGI (786-0 renal): > 100 µM
- TGI (A498 renal): > 100 µM
- TGI (A549 NSCLC): > 100 µM
- TGI (ACHN renal): > 100 µM
- TGI (CAKI-1 renal): > 100 µM
- TGI (COLO 205 colon): > 100 µM
- TGI (DU-145 prostate): > 100 µM
- TGI (HCC-2998 colon): > 100 µM
- TGI (HCT-116 colon): > 100 µM
- TGI (HCT-15 colon): > 100 µM
- TGI (HL-60(TB) leukemia): 57 µM
- TGI (HOP-62 NSCLC): > 100 µM
- TGI (HOP-92 NSCLC): > 100 µM
- TGI (HS 578T breast): > 100 µM
- TGI (HT29 colon): > 100 µM
- TGI (IGROV1 ovarian): > 100 µM
- TGI (K-562 leukemia): > 100 µM
- TGI (KM12 colon): > 100 µM
- TGI (LOX IMVI melanoma): > 100 µM
- TGI (M14 melanoma): > 100 µM
- TGI (MALME-3M melanoma): > 100 µM
- TGI (MCF7 breast): > 100 µM
- TGI (MDA-MB-231 breast): > 100 µM
- TGI (MDA-MB-435): > 100 µM
- TGI (MDA-N): > 100 µM
- TGI (MOLT-4 leukemia): > 100 µM
- TGI (NCI-H226 lung): > 100 µM
- TGI (NCI-H23 lung): 86.7 µM
- TGI (NCI-H460 lung): > 100 µM
- TGI (NCI-H522 lung): > 100 µM
- TGI (NCI/ADR-RES ovarian): > 100 µM
- TGI (OVCAR-3 ovarian): > 100 µM
- TGI (OVCAR-4 ovarian): > 100 µM
- TGI (OVCAR-5 ovarian): > 100 µM
- TGI (OVCAR-8 ovarian): > 100 µM
- TGI (PC-3 prostate): > 100 µM
- TGI (RXF 393 renal): > 100 µM
- TGI (SF-268 CNS): > 100 µM
- TGI (SF-295 CNS): > 100 µM
- TGI (SF-539 CNS): > 100 µM
- TGI (SK-MEL-2 melanoma): > 100 µM
- TGI (SK-MEL-28 melanoma): > 100 µM
- TGI (SK-MEL-5 melanoma): > 100 µM
- TGI (SK-OV-3 ovarian): > 100 µM
- TGI (SN12C renal): > 100 µM
- TGI (SNB-19 CNS): > 100 µM
- TGI (SNB-75 CNS): > 100 µM
- TGI (SR leukemia): > 100 µM
- TGI (SW-620 colon): > 100 µM
- TGI (T-47D breast): > 100 µM
- TGI (TK-10 renal): > 100 µM
- TGI (U251 CNS): > 100 µM
- TGI (UACC-257 melanoma): > 100 µM
- TGI (UACC-62 melanoma): > 100 µM
- TGI (UO-31 renal): > 100 µM

Structure (SMILES): CCOC(=O)CCC(NC(=O)c1ccc(CNc2nc3ccccc3nc2C(=O)OCC)cc1)C(=O)OCC (centres undefined)
- TGI (786-0 renal): > 100 µM
- TGI (A498 renal): > 100 µM
- TGI (A549 NSCLC): > 100 µM
- TGI (ACHN renal): > 100 µM
- TGI (CCRF-CEM leukemia): > 100 µM
- TGI (COLO 205 colon): > 100 µM
- TGI (DU-145 prostate): > 100 µM
- TGI (EKVX NSCLC): > 100 µM
- TGI (HCT-116 colon): > 100 µM
- TGI (HCT-15 colon): > 100 µM
- TGI (HOP-62 NSCLC): > 100 µM
- TGI (HOP-92 NSCLC): > 100 µM
- TGI (HS 578T breast): > 100 µM
- TGI (HT29 colon): > 100 µM
- TGI (IGROV1 ovarian): > 100 µM
- TGI (K-562 leukemia): > 100 µM
- TGI (KM12 colon): > 100 µM
- TGI (LOX IMVI melanoma): > 100 µM
- TGI (M14 melanoma): > 100 µM
- TGI (MALME-3M melanoma): > 100 µM
- TGI (MCF7 breast): > 100 µM
- TGI (MDA-MB-231 breast): > 100 µM
- TGI (MDA-MB-435): 50.3 µM
- TGI (MDA-N): > 100 µM
- TGI (MOLT-4 leukemia): > 100 µM
- TGI (NCI-H226 lung): > 100 µM
- TGI (NCI-H23 lung): > 100 µM
- TGI (NCI-H522 lung): > 100 µM
- TGI (NCI/ADR-RES ovarian): > 100 µM
- TGI (OVCAR-3 ovarian): > 100 µM
- TGI (OVCAR-5 ovarian): > 100 µM
- TGI (OVCAR-8 ovarian): > 100 µM
- TGI (PC-3 prostate): > 100 µM
- TGI (RPMI-8226 leukemia): > 100 µM
- TGI (SF-268 CNS): > 100 µM
- TGI (SF-295 CNS): > 100 µM
- TGI (SK-MEL-2 melanoma): > 100 µM
- TGI (SK-MEL-28 melanoma): > 100 µM
- TGI (SK-MEL-5 melanoma): > 100 µM
- TGI (SK-OV-3 ovarian): > 100 µM
- TGI (SN12C renal): > 100 µM
- TGI (SNB-19 CNS): > 100 µM
- TGI (SNB-75 CNS): > 100 µM
- TGI (SW-620 colon): > 100 µM
- TGI (TK-10 renal): > 100 µM
- TGI (U251 CNS): > 100 µM
- TGI (UACC-62 melanoma): > 100 µM
- TGI (UO-31 renal): > 100 µM
